Test results published in patent publication US7169756B2, “Streptogramin antibiotics” (priority 2005, dated 2007).
Values after ≈ are worked out from the molar mass of the structure shown. Where two headings read alike, the source gives them in different places. Numbered stars: 1 amine (or outer) side, 2 acyl side, 3 side chain; on linkers, the order of the positions; unused ones are H or OH. Bridge positions count the residues as written; N and C are the ends. Square brackets hold non-standard residues; d marks the D form. Peptide text beside a SMILES is read from it. * marks the point of attachment. X1 = O=C1C[C@@H](C(=O)[*:2])N([*:1])C[C@H]1CS[C@@H]1CN2CCC1CC2; NMePhe(4-NMe2) = CN[C@@H](Cc1ccc(N(C)C)cc1)C(=O)O; Picolinoyl(3-OH) = O=C(c1ncccc1O)*; Phg = N[C@H](C(=O)O)c1ccccc1; Orn = NCCC[C@H](N)C(=O)O; dAbu = CC[C@@H](N)C(=O)O; Dap = NC[C@H](N)C(=O)O

Tests used:
E. coli ribosomes = conditions: fluorescence titration, purified intact E. coli ribosomes
E. coli BAS901/pUC19 = assay: microbe, parasite or virus in culture; format: cell-based, Escherichia coli
Text: (§1) A hyperpermeable E. coli strain, E. coli BAS901, harboring a plasmid constitutively expressing Vgb was created for in vivo studies. The plasmids pVGB, described previously in [14], and […] were digested with Xbal and BamHI, to yield an approximately 1 kb fragment containing a ribosomal binding site upstream of vgb, and linearized pUC19 backbone, respectively. The vgb fragment was then subcloned into the linearized pUC19 backbone downstream of pLac yielding pUC19-VGB. Both pUC19-VGB and pUC19 were transformed E. coli BAS901.
(§2) The antibiotic activity of the peptides synthesized in this study was initially assayed using a disk assay where samples were applied to sterile paper disks placed on a fresh lawn of bacterial culture on appropriate agar plates as required by the organism. These were then incubated for 16 hr at 37° C. and the zone of growth inhibition surrounding the disks recorded. For quantitative assessment of antibiotic activity in liquid culture, the minimal inhibitory concentration (MIC) of peptides was determined by serial dilution studies. The peptides and standard antibiotics were dissolved in DMSO and the final concentration of DMSO in the liquid cultures was 5%. Both S. aureus RN4220 and E. coli BAS901 were able to grow efficiently at this level of DMSO.

E. coli BAS901/pUCVgb [1] = assay: microbe, parasite or virus in culture; format: cell-based, Escherichia coli
Text: as §1, §2

[2] = tested on: Staphylococcus epidermidis (ATCC 12228); format: cell-based
Experimental: as §2
(§3) Crude material from the initial synthesis reactions was used to test the potential of the analogues as antibiotics in susceptibility assays where a solution of the compound was placed on a paper disk on a lawn of bacteria. As described above, E. coli BAS901 is deficient in the Imp/OstA protein, an outer membrane protein, involved in cell envelope biogenesis (1, 5). […] The antibiotic activity of the peptides synthesized in this study was initially assayed using a disk assay where samples were applied to sterile paper disks placed on a fresh lawn of bacterial culture on Tryptic Soya, Luria Broth, or Brain Heart Infusion Agar plates. These were then incubated for 16 hrs at 37° C. and the zone of growth inhibition surrounding the disks recorded.

[3] = tested on: Streptococcus pneumoniae (ATCC 6305); format: cell-based
Experimental: as §2, §3

[4] = tested on: Staphylococcus epidermidis (ATCC 14990); format: cell-based
Experimental: as §2, §3

[5] = tested on: Enterococcus faecalis (ATCC 29212); format: cell-based
Experimental: as §2, §3

E. coli BAS901/pUCVgb [6] = assay: disk assay, zone of growth inhibition; format: cell-based, Escherichia coli; conditions: Vgb constitutively expressed
Text: as §1, §2, §3

in vitro translation = assay: In Vitro Translation Assay; format: biochemical; conditions: FIG. 6
Experimental: Inhibition of translation was monitored using an ActivePro In Vitro Translation Kit from Ambion. Briefly, a reaction mixture was prepared as per the manufacturer's instructions that contained all of the constituents necessary (including [^35S]-methionine) except for DNA template. These mixtures were then preincubated for 15 min at room temperature in the presence or absence of various antibiotics. Subsequent to the preincubation period, a control template containing a chloramphenicol acetyltransferase gene under control of a bacteriophage T7 promoter was added and the reaction carried out for 1 hr at 37° C. Due to the insoluble nature of some of the antibiotics, the final DMSO concentration in each reaction including controls was maintained at 5% (v/v). Aliquots were taken after 1 hr, and separated on SDS polyacrylamide gels. The efficiency of translation of ^35S-labeled […] was analyzed and quantified using a Typhoon 9200 variable mode imager (Image-Quant 5.2 software).

[7] = tested on: Streptococcus pneumoniae (ATCC 49619); assay: microbe, parasite or virus in culture; format: cell-based
Experimental: as §2

[8] = tested on: Staphylococcus epidermidis (ATCC 12228); assay: microbe, parasite or virus in culture; format: cell-based
Experimental: as §2

[9] = tested on: Streptococcus pneumoniae (ATCC 6305); assay: microbe, parasite or virus in culture; format: cell-based
Experimental: as §2

[10] = tested on: Staphylococcus aureus (ATCC 29213); assay: microbe, parasite or virus in culture; format: cell-based
Experimental: as §2

[11] = tested on: Staphylococcus aureus RN4220/pJIM2246ΩermB; assay: microbe, parasite or virus in culture; format: cell-based
Experimental: as §2

[12] = tested on: Staphylococcus epidermidis (ATCC 14990); assay: microbe, parasite or virus in culture; format: cell-based
Experimental: as §2

[13] = tested on: Enterococcus faecalis (ATCC 29212); assay: microbe, parasite or virus in culture; format: cell-based
Experimental: as §2

[14] = tested on: Staphylococcus aureus RN4220/pJIM2246; assay: microbe, parasite or virus in culture; format: cell-based
Experimental: as §2

[15] = tested on: Staphylococcus saprophyticus (ATCC 15305); assay: microbe, parasite or virus in culture; format: cell-based
Experimental: as §2

[16] = tested on: Staphylococcus aureus RN4220/pJIM2246Ωvgb; assay: microbe, parasite or virus in culture; format: cell-based
Experimental: as §2

Haemophilus influenza = assay: disk assay, zone of growth inhibition; format: cell-based, Haemophilus influenzae
Experimental: as §2
(§4) Crude material from the initial synthesis reactions was used to test the potential of the analogues as antibiotics in susceptibility assays where a solution of the compound was placed on a paper disk on a lawn of bacteria. As described above, E. coli BAS901 is deficient in the Imp/OstA protein, an outer membrane protein, involved in cell envelope biogenesis (1, 5). […] These were then incubated for 16 hrs at 37° C. and the zone of growth inhibition surrounding the disks recorded.

B. subtilis 168 = format: cell-based, Bacillus subtilis
Experimental: as §2, §4

[17] = E. coli BAS901/pUCVgb (expressing Vgb)

CC[C@H]1NC(=O)[C@@H](NC(=O)c2ncccc2O)[C@@H](C)OC(=O)[C@H](c2ccccc2)NC(=O)[C@@H]2CC(=O)[C@H](CS[C@@H]3CN4CCC3CC4)CN2C(=O)[C@H](Cc2ccc(N(C)C)cc2)N(C)C(=O)[C@@H]2CCCN2C1=O [Quinupristin, quinupristin, reference compound] ({Picolinoyl(3-OH)}-T[dAbu]P[NMePhe(4-NMe2)][X1][Phg]; ester 1-C)
ribosome binding (increase of Hpa fluorescence) (E. coli ribosomes): did support ribosome binding | MIC (E. coli BAS901/pUC19; Escherichia coli, BAS901/PUC19): 4 µg/mL (≈ 3.91 µM) | MIC (E. coli BAS901/pUCVgb [1]; [17]): increased significantly | MIC (E. coli BAS901/pUCVgb [1]; Escherichia coli, BAS901/PUCVGB): > 256 µg/mL | Zone of Inhibition ([2]; Staphylococcus epidermidis (ATCC 12228), disk assay): 3.4 cm | Zone of Inhibition ([3]; Streptococcus pneumoniae (ATCC 6305), disk assay): 2.1 cm | Zone of Inhibition ([4]; Staphylococcus epidermidis (ATCC 14990), disk assay): 3.0 cm | Zone of Inhibition ([5]; Enterococcus faecalis (ATCC 29212), disk assay): 1.8 cm | Zone of Inhibition (E. coli BAS901/pUCVgb [6]): n.i.^a | Zone of Inhibition (E. coli BAS901/pUCVgb [6]; listed as quinupristin): inactivated | inhibition of in vitro translation (in vitro translation; 15 min preincubation, 1 hr at 37° C., 5% DMSO, concentration not given): did block | MIC ([7]; ATCC49619, Streptococcus pneumoniae (ATCC 49619), read-out: MIC): 0.5 µg/mL (≈ 0.489 µM) | MIC ([8]; ATCC12228, Staphylococcus epidermidis (ATCC 12228), read-out: MIC): 0.5 µg/mL (≈ 0.489 µM) | MIC ([9]; ATCC6305, Streptococcus pneumoniae (ATCC 6305), read-out: MIC): 1 µg/mL (≈ 0.978 µM) | MIC ([10]; ATCC29213, read-out: MIC): 4 µg/mL (≈ 3.91 µM) | MIC ([11]; Staphylococcus aureus): 8 µg/mL (≈ 7.83 µM) | MIC ([12]; ATCC14990, Staphylococcus epidermidis (ATCC 14990), read-out: MIC): 1 µg/mL (≈ 0.978 µM) | MIC ([13]; ATCC29212, Enterococcus faecalis (ATCC 29212), read-out: MIC): 8 µg/mL (≈ 7.83 µM) | MIC [14]: 2 µg/mL (≈ 1.96 µM) | MIC ([15]; ATCC15305, Staphylococcus saprophyticus (ATCC 15305), read-out: MIC): 8 µg/mL (≈ 7.83 µM) | MIC ([16]; Staphylococcus aureus): 8 µg/mL (≈ 7.83 µM) | Zone of Inhibition (Haemophilus influenza): n.i. | Zone of Inhibition (B. subtilis 168; B. subtilis 168, disk assay): 2.2 cm

CC(C)C[C@@H]1NC(=O)[C@H](CCCN)NC(=O)[C@H]([C@@H](C)O)NC(=O)[C@@H](NC(=O)c2ncccc2O)CNC(=O)[C@H](Cc2ccccc2)NC(=O)[C@@H]2CCCN2C(=O)[C@@H](Cc2ccccc2)NC1=O [Compound 5] ({Picolinoyl(3-OH)}-[Dap]T[Orn]L[dF]PF; lactam 1-C)
ribosome binding (increase of Hpa fluorescence) (E. coli ribosomes): did not appear to interact with the ribosome | MIC (E. coli BAS901/pUC19; E. coli BAS901/pUC19 (control), 5% DMSO): 32 µg/mL (≈ 34.5 µM) | MIC (E. coli BAS901/pUCVgb [1]; [17]): 32 µg/mL (≈ 34.5 µM) | Zone of Inhibition ([2]; ATCC 12228, 16 h): 0.85 cm | Zone of Inhibition ([3]; ATCC 6305, 16 h): 0.8 cm | Zone of Inhibition ([4]; ATCC 14990, 16 h): 0.75 cm | Zone of Inhibition ([5]; ATCC 29212, 16 h): 0.75 cm | Zone of Inhibition (E. coli BAS901/pUCVgb [6]): still exhibit zones of inhibition | inhibition of in vitro translation (in vitro translation; at 250 μg/ml): did not | MIC ([7]; ATCC 49619, 16 h): 128 µg/mL (≈ 138 µM) | MIC ([8]; ATCC 12228, 16 h): 64 µg/mL (≈ 69 µM) | MIC ([9]; ATCC 6305, 16 h): 32 µg/mL (≈ 34.5 µM) | MIC [10]: 256 µg/mL (≈ 276 µM) | MIC ([11]; Staphylococcus aureus RN4220/pJIM2246ΩermB): 256 µg/mL (≈ 276 µM) | MIC ([12]; ATCC 14990, 16 h): 64 µg/mL (≈ 69 µM) | MIC ([13]; ATCC 29212, 16 h): 128 µg/mL (≈ 138 µM) | MIC [14]: 256 µg/mL (≈ 276 µM) | MIC ([15]; ATCC 15305, 16 h): 64 µg/mL (≈ 69 µM) | MIC ([16]; Staphylococcus aureus RN4220/pJIM2246Ωvgb): 256 µg/mL (≈ 276 µM) | Zone of Inhibition (Haemophilus influenza): n.i. | Zone of Inhibition (B. subtilis 168; 168, 16 h): 0.8 cm
